In paper PMC5218480 (PLoS ONE, 2017):

System: MV-4-11 cells
Assay: Gene expression microarray analysis (Affymetrix PrimeView) and GSEA
Type: cell-based, human
Parameters: RFU PODN (11730768_x_at) / Fold change /veh PODN (11730768_x_at) / RFU LINC00158 (11744669_a_at) / Fold change /veh LINC00158 (11744669_a_at) / RFU DUSP10 (11751237_a_at) / Fold change /veh DUSP10 (11751237_a_at) / RFU ID3 (11757404_x_at) / Fold change /veh ID3 (11757404_x_at) / RFU PLEKHG5 (11737974_s_at) / Fold change /veh PLEKHG5 (11737974_s_at) / RFU LRRC4B (11730491_at) / Fold change /veh LRRC4B (11730491_at) / RFU GIMAP4 (11747438_a_at) / Fold change /veh GIMAP4 (11747438_a_at) / RFU KRT8 (11758183_x_at) / Fold change /veh KRT8 (11758183_x_at) / RFU CNN1 (11734310_a_at) / Fold change /veh CNN1 (11734310_a_at) / RFU VPS37D (11726825_at) / Fold change /veh VPS37D (11726825_at) / RFU C10orf10 (11716522_x_at) / Fold change /veh C10orf10 (11716522_x_at) / RFU KIR2DL2 /// KIR2DL4 /// KIR2DL5A /// KIR2DL5B /// KIR2DS1 /// KIR2DS2 /// KIR2DS3 /// KIR2DS4 /// KIR3DL3 /// KIR3DL3 /// KIR3DS1 (11738374_at) / Fold change /veh KIR2DL2 /// KIR2DL4 /// KIR2DL5A /// KIR2DL5B /// KIR2DS1 /// KIR2DS2 /// KIR2DS3 /// KIR2DS4 /// KIR3DL3 /// KIR3DL3 /// KIR3DS1 (11738374_at) / RFU C1QL1 (11718748_at) / Fold change /veh C1QL1 (11718748_at) / RFU TMPRSS4 (11747572_a_at) / Fold change /veh TMPRSS4 (11747572_a_at) / RFU HAMP (11756126_x_at) / Fold change /veh HAMP (11756126_x_at) / RFU RNFT2 (11725882_a_at) / Fold change /veh RNFT2 (11725882_a_at) / RFU NR4A2 (11747474_a_at) / Fold change /veh NR4A2 (11747474_a_at) / RFU ABCC12 (11746883_a_at) / Fold change /veh ABCC12 (11746883_a_at) / RFU TMEM136 (11760407_x_at) / Fold change /veh TMEM136 (11760407_x_at) / RFU CLDN22 /// WWC2 (11732394_at) / Fold change /veh CLDN22 /// WWC2 (11732394_at) / RFU HLA-DPB1 (11760878_x_at) / Fold change /veh HLA-DPB1 (11760878_x_at) / RFU SPINT1 (11716480_a_at) / Fold change /veh SPINT1 (11716480_a_at) / RFU GAP43 (11754022_s_at) / Fold change /veh GAP43 (11754022_s_at) / RFU A4GNT (11735810_at) / Fold change /veh A4GNT (11735810_at) / RFU PRB3 (11715151_x_at) / Fold change /veh PRB3 (11715151_x_at) / RFU TUBB4B (11761932_at) / Fold change /veh TUBB4B (11761932_at) / RFU CAPN14 (11732068_a_at) / Fold change /veh CAPN14 (11732068_a_at) / RFU TMCC2 (11721928_a_at) / Fold change /veh TMCC2 (11721928_a_at) / RFU IRGQ (11745062_a_at) / Fold change /veh IRGQ (11745062_a_at) / RFU FAM174B (11720279_a_at) / Fold change /veh FAM174B (11720279_a_at) / RFU TMPRSS4 (11748680_a_at) / Fold change /veh TMPRSS4 (11748680_a_at) / RFU FAM212B (11763350_a_at) / Fold change /veh FAM212B (11763350_a_at) / RFU PLEKHG5 (11743358_a_at) / Fold change /veh PLEKHG5 (11743358_a_at) / RFU ZSCAN30 (11745921_a_at) / Fold change /veh ZSCAN30 (11745921_a_at) / RFU CMKLR1 (11741424_a_at) / Fold change /veh CMKLR1 (11741424_a_at) / RFU LOC101060620 /// MAPK8IP1 (11723275_at) / Fold change /veh LOC101060620 /// MAPK8IP1 (11723275_at) / RFU SPTSSB (11747773_x_at) / Fold change /veh SPTSSB (11747773_x_at) / RFU PRSS12 (11739890_at) / Fold change /veh PRSS12 (11739890_at) / RFU BIN1 (11741810_x_at) / Fold change /veh BIN1 (11741810_x_at) / RFU WNT11 (11732464_a_at) / Fold change /veh WNT11 (11732464_a_at) / RFU C10orf10 (11716521_a_at) / Fold change /veh C10orf10 (11716521_a_at) / RFU C5orf56 (11738089_at) / Fold change /veh C5orf56 (11738089_at) / RFU CYB561 (11721691_x_at) / Fold change /veh CYB561 (11721691_x_at) / RFU ANKRD19P (11752326_a_at) / Fold change /veh ANKRD19P (11752326_a_at) / RFU OR2T12 /// OR2T33 /// OR2T8 (11738714_s_at) / Fold change /veh OR2T12 /// OR2T33 /// OR2T8 (11738714_s_at) / RFU VCAN (11748164_a_at) / Fold change /veh VCAN (11748164_a_at) / RFU JSRP1 (11732532_at) / Fold change /veh JSRP1 (11732532_at) / RFU KRTAP10-11 (11738290_x_at) / Fold change /veh KRTAP10-11 (11738290_x_at) / RFU MYO3A (11730013_a_at) / Fold change /veh MYO3A (11730013_a_at) / RFU EBF3 (11725865_a_at) / Fold change /veh EBF3 (11725865_a_at) / RFU CAMK2N1 (11719241_x_at) / Fold change /veh CAMK2N1 (11719241_x_at) / RFU C5orf56 (11738088_a_at) / Fold change /veh C5orf56 (11738088_a_at) / RFU OLFML3 (11715873_a_at) / Fold change /veh OLFML3 (11715873_a_at) / RFU LOC100653217 /// NTM (11731650_a_at) / Fold change /veh LOC100653217 /// NTM (11731650_a_at) / RFU MAPK11 (11762145_a_at) / Fold change /veh MAPK11 (11762145_a_at) / RFU FIZ1 (11724087_x_at) / Fold change /veh FIZ1 (11724087_x_at) / RFU OASL (11726364_x_at) / Fold change /veh OASL (11726364_x_at) / RFU SOX15 (11748057_x_at) / Fold change /veh SOX15 (11748057_x_at) / RFU CD79A (11719716_a_at) / Fold change /veh CD79A (11719716_a_at) / RFU HIST1H1D (11736915_at) / Fold change /veh HIST1H1D (11736915_at) / RFU CASKIN2 (11723855_a_at) / Fold change /veh CASKIN2 (11723855_a_at) / RFU LOC730098 (11760151_x_at) / Fold change /veh LOC730098 (11760151_x_at) / RFU OR4N2 (11742367_at) / Fold change /veh OR4N2 (11742367_at) / RFU PRRT2 (11749266_a_at) / Fold change /veh PRRT2 (11749266_a_at) / RFU SNX32 (11753110_a_at) / Fold change /veh SNX32 (11753110_a_at) / RFU CDHR5 (11726645_a_at) / Fold change /veh CDHR5 (11726645_a_at) / RFU RCAN1 (11760418_a_at) / Fold change /veh RCAN1 (11760418_a_at) / RFU FAM167A (11723789_a_at) / Fold change /veh FAM167A (11723789_a_at) / RFU FAM26E (11764081_at) / Fold change /veh FAM26E (11764081_at) / RFU ISYNA1 (11749810_s_at) / Fold change /veh ISYNA1 (11749810_s_at) / RFU ACY1 (11761880_at) / Fold change /veh ACY1 (11761880_at) / RFU 11764098_at / Fold change /veh 11764098_at / RFU SAMD14 (11745864_x_at) / Fold change /veh SAMD14 (11745864_x_at) / RFU NPB (11741838_a_at) / Fold change /veh NPB (11741838_a_at) / RFU TMPRSS6 (11731388_a_at) / Fold change /veh TMPRSS6 (11731388_a_at) / RFU KRTAP10-2 (11738614_at) / Fold change /veh KRTAP10-2 (11738614_at) / RFU ARHGAP8 /// PRR5-ARHGAP8 (11727945_x_at) / Fold change /veh ARHGAP8 /// PRR5-ARHGAP8 (11727945_x_at) / RFU KRTAP5-7 /// NADSYN1 (11734609_at) / Fold change /veh KRTAP5-7 /// NADSYN1 (11734609_at) / RFU RASL12 (11751679_a_at) / Fold change /veh RASL12 (11751679_a_at) / RFU CDKN2B (11736163_a_at) / Fold change /veh CDKN2B (11736163_a_at) / RFU PRF1 (11729649_at) / Fold change /veh PRF1 (11729649_at) / RFU, ZNF638 /// ZNF638-IT1 / Fold change vs veh, ZNF638 /// ZNF638-IT1 / RFU, PANK3 / Fold change vs veh, PANK3 / RFU, SH3YL1 / Fold change vs veh, SH3YL1 / RFU, ZEB2 / Fold change vs veh, ZEB2 / RFU, NRIP1 / Fold change vs veh, NRIP1 / RFU, PTTG1IP / Fold change vs veh, PTTG1IP / RFU, CAPN2 / Fold change vs veh, CAPN2 / RFU, MED14 / Fold change vs veh, MED14 / RFU, SNORA58 / Fold change vs veh, SNORA58 / RFU, C1orf63 / Fold change vs veh, C1orf63 / RFU, LRRFIP1 / Fold change vs veh, LRRFIP1 / RFU, NDUFAF7 / Fold change vs veh, NDUFAF7 / RFU, SLC12A2 / Fold change vs veh, SLC12A2 / RFU, IBTK / Fold change vs veh, IBTK / RFU, ESF1 / Fold change vs veh, ESF1 / Fold change vs veh, TMEM50B / RFU, TAOK1 / Fold change vs veh, TAOK1 / RFU, ACBD3 / Fold change vs veh, ACBD3 / RFU, TMA16 / Fold change vs veh, TMA16 / RFU, RWDD3 / Fold change vs veh, RWDD3 / RFU, BCAT1 / Fold change vs veh, BCAT1 / RFU, EDEM3 / Fold change vs veh, EDEM3 / RFU, TMEM33 / Fold change vs veh, TMEM33 / RFU, WDR75 / Fold change vs veh, WDR75 / RFU, AHCTF1 / Fold change vs veh, AHCTF1 / RFU, TFRC / Fold change vs veh, TFRC / RFU, ZDHHC17 / Fold change vs veh, ZDHHC17 / RFU, NOM1 / Fold change vs veh, NOM1 / RFU, ARL8B / Fold change vs veh, ARL8B / RFU, ZBTB11 / Fold change vs veh, ZBTB11 / RFU, TAMM41 / Fold change vs veh, TAMM41 / RFU, KIAA1704 /// LOC100996395 / Fold change vs veh, KIAA1704 /// LOC100996395 / RFU, ING1 / Fold change vs veh, ING1 / RFU, TRMT61B / Fold change vs veh, TRMT61B / RFU, FUBP3 / Fold change vs veh, FUBP3 / RFU, TP53 / Fold change vs veh, TP53 / RFU, TNKS2 / Fold change vs veh, TNKS2 / RFU, ZFP14 / Fold change vs veh, ZFP14 / RFU, ACTR2 / Fold change vs veh, ACTR2 / RFU, PPP3R1 / Fold change vs veh, PPP3R1 / RFU, PIK3R1 / Fold change vs veh, PIK3R1 / RFU, HNRNPA1 / Fold change vs veh, HNRNPA1 / RFU, RNF170 / Fold change vs veh, RNF170 / RFU, ZNF28 / Fold change vs veh, ZNF28 / RFU, RNGTT / Fold change vs veh, RNGTT / RFU, OGT / Fold change vs veh, OGT / RFU, BRD1 / Fold change vs veh, BRD1 / RFU, MARS / Fold change vs veh, MARS / RFU, ZNF655 / Fold change vs veh, ZNF655 / RFU, FAHD1 / Fold change vs veh, FAHD1 / RFU, BDP1 / Fold change vs veh, BDP1 / RFU, LRRCC1 / Fold change vs veh, LRRCC1 / RFU, ARID1A / Fold change vs veh, ARID1A / RFU, ZNF146 / Fold change vs veh, ZNF146 / RFU, ZNF330 / Fold change vs veh, ZNF330 / RFU, GPN3 / Fold change vs veh, GPN3 / RFU, C9orf123 / Fold change vs veh, C9orf123 / RFU, N4BP2L2 / Fold change vs veh, N4BP2L2 / RFU, ARFIP1 / Fold change vs veh, ARFIP1 / RFU, FAM179B / Fold change vs veh, FAM179B / RFU, BCL10 / Fold change vs veh, BCL10 / RFU, UHRF1BP1L / Fold change vs veh, UHRF1BP1L / RFU, BET1 / Fold change vs veh, BET1 / RFU, CNOT2 / Fold change vs veh, CNOT2 / RFU, ZNF268 / Fold change vs veh, ZNF268 / Fold change vs veh, ZNF507 / RFU, DGCR2 / Fold change vs veh, DGCR2 / RFU, WDSUB1 / Fold change vs veh, WDSUB1 / Fold change vs veh, HSP90B1 /// MIR3652 / RFU, ADSS / Fold change vs veh, ADSS / RFU, GK / Fold change vs veh, GK / RFU, ZNF148 / Fold change vs veh, ZNF148 / RFU, TAF9 / Fold change vs veh, TAF9 / RFU, SLC1A5 / Fold change vs veh, SLC1A5 / RFU, SLMO2 / Fold change vs veh, SLMO2 / RFU, ABCC4 / Fold change vs veh, ABCC4 / RFU, LOC101060439 /// RAP1B / Fold change vs veh, LOC101060439 /// RAP1B / RFU, RFX7 / Fold change vs veh, RFX7 / RFU, GTPBP10 / Fold change vs veh, GTPBP10 / RFU, CNEP1R1 / Fold change vs veh, CNEP1R1 / RFU, BIVM-ERCC5 /// ERCC5 / Fold change vs veh, BIVM-ERCC5 /// ERCC5 / RFU, ILF3 / Fold change vs veh, ILF3 / RFU 11762660_at / Fold change /veh 11762660_at / RFU VCAN (11757783_s_at) / Fold change /veh VCAN (11757783_s_at) / RFU DDX43 (11728927_at) / Fold change /veh DDX43 (11728927_at) / RFU KRT8 (11758188_x_at) / Fold change /veh KRT8 (11758188_x_at) / RFU NKD1 (11759106_at) / Fold change /veh NKD1 (11759106_at) / RFU SRD5A1 (11742802_a_at) / Fold change /veh SRD5A1 (11742802_a_at) / RFU TPSAB1 /// TPSB2 (11721975_s_at) / Fold change /veh TPSAB1 /// TPSB2 (11721975_s_at) / RFU GSTM3 (11746129_a_at) / Fold change /veh GSTM3 (11746129_a_at) / RFU IL23R (11737362_x_at) / Fold change /veh IL23R (11737362_x_at) / RFU TMEM51 (11727254_a_at) / Fold change /veh TMEM51 (11727254_a_at) / RFU PIWIL2 (11732686_x_at) / Fold change /veh PIWIL2 (11732686_x_at) / RFU ORM1 (11744905_x_at) / Fold change /veh ORM1 (11744905_x_at) / RFU CCDC152 (11743942_at) / Fold change /veh CCDC152 (11743942_at) / RFU ECM1 (11717891_a_at) / Fold change /veh ECM1 (11717891_a_at) / RFU IL23R (11748794_a_at) / Fold change /veh IL23R (11748794_a_at) / RFU TNFAIP8L3 (11732012_x_at) / Fold change /veh TNFAIP8L3 (11732012_x_at) / RFU MBOAT4 (11741988_at) / Fold change /veh MBOAT4 (11741988_at) / RFU 11764193_at / Fold change /veh 11764193_at / RFU TMEM53 (11763286_at) / Fold change /veh TMEM53 (11763286_at) / RFU MAGEB2 (11727129_at) / Fold change /veh MAGEB2 (11727129_at) / RFU TMEM200A (11744735_a_at) / Fold change /veh TMEM200A (11744735_a_at) / RFU CCDC152 (11751479_a_at) / Fold change /veh CCDC152 (11751479_a_at) / RFU FAM211A (11726209_a_at) / Fold change /veh FAM211A (11726209_a_at) / RFU RGS16 (11746705_a_at) / Fold change /veh RGS16 (11746705_a_at) / RFU VCAN (11755009_s_at) / Fold change /veh VCAN (11755009_s_at) / RFU RHOB (11743442_s_at) / Fold change /veh RHOB (11743442_s_at) / RFU RGS16 (11720943_a_at) / Fold change /veh RGS16 (11720943_a_at) / RFU RGS16 (11720944_at) / Fold change /veh RGS16 (11720944_at) / RFU, VPS4B / Fold change vs veh, VPS4B / RFU, CREB1 / Fold change vs veh, CREB1 / RFU, DNAJC13 / Fold change vs veh, DNAJC13 / RFU, GNAQ / Fold change vs veh, GNAQ / RFU, CDK5R1 / Fold change vs veh, CDK5R1 / RFU, ZRANB3 / Fold change vs veh, ZRANB3 / RFU, CUL4A / Fold change vs veh, CUL4A / RFU, CCNY / Fold change vs veh, CCNY / RFU, UFL1 / Fold change vs veh, UFL1 / RFU, COG3 / Fold change vs veh, COG3 / RFU, DIAPH2 / Fold change vs veh, DIAPH2 / RFU, SKA2 / Fold change vs veh, SKA2 / RFU, AFF3 / Fold change vs veh, AFF3 / RFU, LMF1 / Fold change vs veh, LMF1 / RFU, IPO11 / Fold change vs veh, IPO11 / RFU, DFFB / Fold change vs veh, DFFB / RFU, FOXP1 / Fold change vs veh, FOXP1 / RFU, CARD8 / Fold change vs veh, CARD8 / RFU, STRN3 / Fold change vs veh, STRN3 / RFU, ADK / Fold change vs veh, ADK / RFU, RASSF2 / Fold change vs veh, RASSF2 / RFU, WIPF1 / Fold change vs veh, WIPF1 / RFU, LARP1B / Fold change vs veh, LARP1B / RFU, RASA1 / Fold change vs veh, RASA1 / RFU, RB1 / Fold change vs veh, RB1 / RFU, PPFIA1 / Fold change vs veh, PPFIA1 / RFU, MAT2A / Fold change vs veh, MAT2A / RFU, CCT5 / Fold change vs veh, CCT5 / RFU, WDR92 / Fold change vs veh, WDR92 / RFU, CUX1 / Fold change vs veh, CUX1 / RFU, TTC7A / Fold change vs veh, TTC7A / RFU, TMEM135 / Fold change vs veh, TMEM135 / RFU, DEPTOR / Fold change vs veh, DEPTOR / RFU, CPM / Fold change vs veh, CPM / RFU, DNAJB6 / Fold change vs veh, DNAJB6 / RFU, CACNA2D3 / Fold change vs veh, CACNA2D3 / RFU, DTX4 / Fold change vs veh, DTX4 / RFU, TFCP2 / Fold change vs veh, TFCP2 / RFU, GMCL1 /// GMCL1P1 / Fold change vs veh, GMCL1 /// GMCL1P1 / RFU, AEBP2 / Fold change vs veh, AEBP2 / RFU, SNHG1 /// SNORD22 /// SNORD25 /// SNORD26 /// SNORD27 /// SNORD28 /// SNORD29 /// SNORD31 / Fold change vs veh, SNHG1 /// SNORD22 /// SNORD25 /// SNORD26 /// SNORD27 /// SNORD28 /// SNORD29 /// SNORD31 / Fold change (Aza/veh), C12orf56 (ProbeSet 11735607_a_at) / Fold change (ACY-1035/veh), C12orf56 (ProbeSet 11735607_a_at) / Fold change (Aza/veh), FGFR1OP (ProbeSet 11751329_s_at) / Fold change (ACY-1035/veh), FGFR1OP (ProbeSet 11751329_s_at) / Fold change (Aza/veh), VPS36 (ProbeSet 11739960_a_at) / Fold change (ACY-1035/veh), VPS36 (ProbeSet 11739960_a_at) / RFU SYPL1 (11715823_x_at) / Fold change /veh SYPL1 (11715823_x_at) / RFU IGFBP7 (11715501_s_at) / Fold change /veh IGFBP7 (11715501_s_at) / RFU REEP3 (11722064_at) / Fold change /veh REEP3 (11722064_at) / RFU IGLL1 (11728026_x_at) / Fold change /veh IGLL1 (11728026_x_at): dose or concentration left out as unconfirmed
Settings: ProbeSet 11747889_x_at; LIST B

Nc1ccc(-c2cccs2)cc1NC(=O)c1ccc2c(c1)cc(C1CC1)n2CCN1CCOCC1 [ACY-1035]
Fold change vs veh, SH3YL1: 0.99
